Data reported in PubChem BioAssay (NCI).
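Following 48 hours of exposure in 96-well plates, responses at five concentrations were used to interpolate endpoints linearly. TGI marks complete inhibition of growth.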

How the values were obtained:
Assay in all cases: DTP human tumour cell line panel, 48 h
786-0 renal = system: 786-0 renal
A498 renal = system: A498 renal
A549 NSCLC = system: A549 NSCLC
ACHN renal = system: ACHN renal
BT-549 breast = system: BT-549 breast
CAKI-1 renal = system: CAKI-1 renal
CCRF-CEM leukemia = system: CCRF-CEM leukemia
COLO 205 colon = system: COLO 205 colon
DU-145 prostate = system: DU-145 prostate
EKVX NSCLC = system: EKVX NSCLC
HCC-2998 colon = system: HCC-2998 colon
HCT-116 colon = system: HCT-116 colon
HCT-15 colon = system: HCT-15 colon
HL-60(TB) leukemia = system: HL-60(TB) leukemia
HOP-62 NSCLC = system: HOP-62 NSCLC
HOP-92 NSCLC = system: HOP-92 NSCLC
HS 578T breast = system: HS 578T breast
HT29 colon = system: HT29 colon
KM12 colon = system: KM12 colon
LOX IMVI melanoma = system: LOX IMVI melanoma
M14 melanoma = system: M14 melanoma
MALME-3M melanoma = system: MALME-3M melanoma
MCF7 breast = system: MCF7 breast
MDA-MB-231 breast = system: MDA-MB-231 breast
MDA-MB-435 = system: MDA-MB-435
MDA-N = system: MDA-N
MOLT-4 leukemia = system: MOLT-4 leukemia
NCI-H226 lung = system: NCI-H226 lung
NCI-H23 lung = system: NCI-H23 lung
NCI-H460 lung = system: NCI-H460 lung
NCI-H522 lung = system: NCI-H522 lung
NCI/ADR-RES ovarian = system: NCI/ADR-RES ovarian
OVCAR-3 ovarian = system: OVCAR-3 ovarian
OVCAR-4 ovarian = system: OVCAR-4 ovarian
OVCAR-5 ovarian = system: OVCAR-5 ovarian
OVCAR-8 ovarian = system: OVCAR-8 ovarian
PC-3 prostate = system: PC-3 prostate
RPMI-8226 leukemia = system: RPMI-8226 leukemia
RXF 393 renal = system: RXF 393 renal
SF-268 CNS = system: SF-268 CNS
SF-295 CNS = system: SF-295 CNS
SF-539 CNS = system: SF-539 CNS
SK-MEL-2 melanoma = system: SK-MEL-2 melanoma
SK-MEL-28 melanoma = system: SK-MEL-28 melanoma
SK-MEL-5 melanoma = system: SK-MEL-5 melanoma
SK-OV-3 ovarian = system: SK-OV-3 ovarian
SN12C renal = system: SN12C renal
SNB-19 CNS = system: SNB-19 CNS
SNB-75 CNS = system: SNB-75 CNS
SR leukemia = system: SR leukemia
SW-620 colon = system: SW-620 colon
T-47D breast = system: T-47D breast
TK-10 renal = system: TK-10 renal
U251 CNS = system: U251 CNS
UACC-257 melanoma = system: UACC-257 melanoma
UACC-62 melanoma = system: UACC-62 melanoma
UO-31 renal = system: UO-31 renal

Measured: TGI

Cc1ccc(C(CCO)CCO)nc1
> 100 µM: all assays above
